Results reported in ChEMBL document CHEMBL5512632, “Unlocking the potential of 1,4-naphthoquinones: A comprehensive review of their anticancer properties” (Eur J Med Chem, 2024).
In brackets after ≈: the same amount, converted by molar mass. Each block holds one molecule with its values, some of them ahead of it.

What was measured:
HT-29 [1] = test: Antiproliferative activity against human HT-29 cells assessed as inhibition of cell growth incubated for 48 hrs by MTT assay; format: functional, cell-based; conditions: HT-29, 48 h
MV4-11 = test: Cytotoxicity against human MV4-11 cells; format: functional, cell-based
MCF7 [2] = test: Antiproliferative activity against human MCF7 cells assessed as inhibition of cell growth incubated for 72 hrs by MTT assay; format: functional, cell-based; conditions: MCF7, 72 h
HT-29 [3] = test: Antiproliferative activity against human HT-29 cells assessed as inhibition of cell growth incubated for 72 hrs by MTT assay; format: functional, cell-based; conditions: HT-29, 72 h
MOLT-4 = test: Antiproliferative activity against human MOLT-4 cells assessed as inhibition of cell growth incubated for 72 hrs by MTT assay; format: functional, cell-based; conditions: MOLT-4, 72 h
THP-1 = test: Antiproliferative activity against human THP-1 cells assessed as inhibition of cell growth; format: functional, cell-based
K562 = test: Antiproliferative activity against human K562 cells assessed as inhibition of cell growth; format: functional, cell-based
HepG2 [4] = test: Antiproliferative activity against human HepG2 cells assessed as inhibition of cell growth incubated for 48 hrs by MTT reagent based colorimetric assay; format: functional; conditions: HepG2, 48 h
HeLa [5] = test: Antiproliferative activity against human HeLa cells assessed as inhibition of cell growth incubated for 48 hrs by MTT reagent based colorimetric assay; format: functional
HeLa [6] = test: Cytotoxicity against human HeLa cells assessed as inhibition of cell growth incubated for 48 hrs by MTT assay; format: functional, cell-based
LOX IMVI = test: Antiproliferative activity against human LOX IMVI cells assessed as inhibition of cell growth incubated for 24 to 48 hrs by SRB assay; format: functional, cell-based
SGC-7901 = test: Antiproliferative activity against human SGC-7901 cells assessed as inhibition of cell growth incubated for 48 hrs by MTT assay; format: functional, cell-based; conditions: SGC-7901, 48 h
HepG2 [7] = test: Antiproliferative activity against human HepG2 cells assessed as inhibition of cell growth incubated for 48 hrs by MTT assay; format: functional, cell-based; conditions: HepG2, 48 h
NCI-H460 [8] = test: Antiproliferative activity against human NCI-H460 cells assessed as inhibition of cell growth incubated for 24 hrs by MTT assay; format: functional, cell-based; conditions: NCI-H460, 24 h
MDA-MB-231 = test: Antiproliferative activity against human MDA-MB-231 cells assessed as inhibition of cell growth incubated for 24 hrs by MTT assay; format: functional, cell-based; conditions: MDA-MB-231, 24 h
A2780 = test: Antiproliferative activity against human A2780 cells assessed as inhibition of cell growth incubated for 24 hrs by MTT assay; format: functional, cell-based; conditions: A2780, 24 h
AGS = test: Antiproliferative activity against human AGS cells assessed as inhibition of cell growth incubated for 3 days by MTT assay; format: functional, cell-based; conditions: 72 h
PC-3 = test: Antiproliferative activity against human PC-3 cells assessed as inhibition of cell growth incubated for 72 hrs by MTT assay; format: functional, cell-based; conditions: PC-3, 72 h
LNCaP = test: Antiproliferative activity against human LNCaP cells assessed as inhibition of cell growth incubated for 72 hrs by MTT assay; format: functional, cell-based
Jurkat = test: Antiproliferative activity against human Jurkat cells assessed as inhibition of cell growth incubated for 72 hrs by MTT assay; format: functional, cell-based
HCT-116 = test: Antiproliferative activity against human HCT-116 cells assessed as inhibition of cell growth incubated for 72 hrs by MTT assay; format: functional, cell-based; conditions: HCT-116, 72 h
SF-295 = test: Antiproliferative activity against human SF-295 cells assessed as inhibition of cell growth incubated for 72 hrs by MTT assay; format: functional, cell-based; conditions: SF-295, 72 h
MDA-MB-435 = test: Antiproliferative activity against human MDA-MB-435 cells assessed as inhibition of cell growth incubated for 72 hrs by MTT assay; format: functional, cell-based; conditions: MDA-MB-435, 72 h
NCI-H460 [9] = test: Antiproliferative activity against human NCI-H460 cells assessed as inhibition of cell growth incubated for 72 hrs by MTT assay; format: functional, cell-based; conditions: NCI-H460, 72 h
OVCAR-8 = test: Antiproliferative activity against human OVCAR-8 cells assessed as inhibition of cell growth incubated for 72 hrs by MTT assay; format: functional, cell-based; conditions: OVCAR-8, 72 h
DU-145 = test: Antiproliferative activity against human DU-145 cells assessed as inhibition of cell growth incubated for 72 hrs by MTT assay; format: functional, cell-based; conditions: DU-145, 72 h
MCF7 [10] = test: Antiproliferative activity against human MCF7 cells assessed as inhibition of cell growth incubated for 24 hrs by MTT assay; format: functional, cell-based; conditions: MCF7, 24 h
HeLa [11] = test: Antiproliferative activity against human HeLa cells assessed as inhibition of cell growth incubated for 24 hrs by MTT assay; format: functional, cell-based
HepG2 [12] = test: Antiproliferative activity against human HepG2 cells assessed as inhibition of cell growth incubated for 24 hrs by MTT assay; format: functional, cell-based; conditions: HepG2, 24 h
SiHa = test: Antiproliferative activity against human SiHa cells; format: functional, cell-based

SMILES: O=C(Cc1ccc(C(=O)NO)cc1)NC1=CC(=O)c2ccccc2C1=O
EC50 (MV4-11): 0.367 µM

SMILES: COc1cc(C2C3=C(Nc4cc5c(cc42)OCO5)C(=O)c2ccccc2C3=O)cc(OC)c1OC (stereo unspecified)
IC50 (HepG2 [4]): 14.6 µM | IC50 (HeLa [5]): 26.8 µM

SMILES: CC(C)(C)SC1=C(Cl)C(=O)c2ccccc2C1=O
IC50 (HeLa [6]): 10.2 µM

SMILES: COc1cc(C2C3=C(Sc4[nH]c(=O)sc42)C(=O)c2ccccc2C3=O)ccc1O (stereo unspecified)
IC50 (LOX IMVI): 0.16 µM

SMILES: COc1ccc(C2C3=C(Nc4nc(SC)nc(N)c42)C(=O)c2ccccc2C3=O)cc1Br (stereo unspecified)
IC50 (SGC-7901): 4.39 µM | IC50 (HepG2 [7]): 5.91 µM

SMILES: Cn1c(=O)c2c3c(c(-c4cccs4)nc2n(C)c1=O)C(=O)c1ccccc1C3=O
IC50 (AGS): 3.3 µM

SMILES: COc1ccc(N(Cc2cn(S(=O)(=O)c3ccc(C)cc3)nn2)C2=CC(=O)c3ccccc3C2=O)cc1
IC50 (MCF7 [2]): 0.58 µM | IC50 (Jurkat): 0.31 µM | IC50 (HCT-116): 0.46 µM | IC50 (SF-295): 0.42 µM | IC50 (MDA-MB-435): 0.56 µM | IC50 (NCI-H460 [9]): 0.38 µM | IC50 (OVCAR-8): 0.85 µM | IC50 (DU-145): 0.38 µM

SMILES: O=C(Nc1ccc(S(=O)(=O)c2ccc3[nH]c4c(c3c2)C(=O)c2ccccc2C4=O)cc1)c1cc([N+](=O)[O-])cc([N+](=O)[O-])c1
IC50 (SiHa): 20 µg/mL (≈ 33.5 µM)

The remaining lines, values ahead:

IC50 (HT-29 [1]): 1.73 µM
SMILES: O=C(c1cccs1)c1cc2c(s1)C(=O)c1ccccc1C2=O

IC50 (MCF7 [2]): 10.4 µM | IC50 (HT-29 [3]): 6.8 µM | IC50 (MOLT-4): 8.4 µM
SMILES: Cc1ccc(Cn2cc(CNC3=CC(=O)c4ccccc4C3=O)nn2)cc1

IC50 (THP-1): 23 µM | IC50 (K562): 78 µM
SMILES: CCNC1=CC(=O)c2ccccc2C1=O

IC50 (NCI-H460 [8]): 4.24 µM | IC50 (MDA-MB-231): 16 µM | IC50 (A2780): 3.69 µM
SMILES: O=C1C=C(SCCO)C(=O)c2ccccc21

IC50 (PC-3): 1.26 µM | IC50 (LNCaP): 0.1 µM
SMILES: O=C1c2ccccc2C(=O)c2oc(-c3ccccc3Cl)nc21

IC50 (MCF7 [10]): 16.1 µM | IC50 (HeLa [11]): 13 µM | IC50 (HepG2 [12]): 18.7 µM
SMILES: O=C1C=C(SCCC(=O)N2CCN(c3ccccc3F)CC2)C(=O)c2ccccc21
